Earlier results as cited in US6342251B1, “Compositions for nasal administration” (West Pharmaceutical Services Drug Delivery & Clinical …, priority 1997, dated 2002).

Columns and labels:
[1] = patients, erectile dysfunction
[2] = Parkinson's disease

## CN1CCc2cccc3c2[C@H]1Cc1ccc(O)c(O)c1-3 [apomorphine, (6aR)-5,6,6a, 7-tetrahydro-6-methyl-4H-dibenzo(d, e, g) quinoline-10, 11-diol hemihydrate]
[1]
  side effects after nasal administration: unacceptable side effects such as yawning, nausea, vomiting, dizziness, blurred vision, diaphoresis, pallor and mild hypertension
[2]
  local reactions after intranasal administration: transient nasal blockage and a burning sensation
